≈ marks a conversion by molar mass, not a printed value. Non-standard residues stand in square brackets, D forms with d. Residues, ends and D or L forms follow the SMILES beside them. Nle = CCCC[C@H](N)C(=O)O
Tests used:
C. glabrata DSM 11226 = conditions: C. glabrata DSM 11226, RPMI-1640, 200 – 0.4 μg/mL range
Procedure: (§1) The selective activities of the FLC-conjugates were calculated according to the following formula
(§2) (1 picture or pasted object on this page, not shown here)

C. parapsilosis DSM 5784 = conditions: C. parapsilosis DSM 5784, RPMI-1640, 200 – 0.4 μg/mL range
Procedure: as §1, §2

C. tropicalis (clinical) = conditions: RPMI-1640, 200 – 0.4 μg/mL range
Procedure: as §1, §2

C. albicans ATCC 10231 = conditions: C. albicans ATCC 10231, RPMI-1640, 200 – 0.4 μg/mL range
Procedure: as §1, §2

C. krusei DSM 6128 = conditions: C. krusei DSM 6128, RPMI-1640, 200 – 0.4 μg/mL range
Procedure: as §1, §2

MTT cytotoxicity assay [1] = conditions: human
Procedure: (§3) The assessment of antifungal potential of synthesized agents was carried out using four reference strains (C. albicans ATCC 10231, C. albicans SC5314, C. glabrata DSM […] and C. krusei DSM […]) and six clinical isolates of fluconazole-resistant C. albicans that were provided by the Hospital of Medical University of Gdansk, Poland. Moreover, four C. albicans isolates, assigned as B3, B4, Gu4 and Gu5, were used for investigation whether the synthesized fluconazole derivatives were effectively removed from the yeast cells by the drug efflux transporters, as in the case of fluconazole. These strains were kindly provided by Prof. Joachim Morschhäuser from University of Würzburg (Würzburg, Germany). Strains Gu4 and B3 were fluconazole-sensitive isolates obtained from early infection episodes, while Gu5 and B4 were the corresponding fluconazole-resistant isolates obtained from later episodes in the same patients treated with fluconazole. The lack of susceptibility of the Gu5 strain to fluconazole was a consequence of overexpression of CDR1/2 genes encoding ABC transporters, whereas the resistance of B4 strain was caused by overexpression of the MDR1 gene encoding a membrane transport protein of the major facilitator superfamily (MFS). All of these Candida spp. strains were maintained on YPD agar plates (1% (w/v) yeast extract, 2% (w/v) peptone, 2% (w/v) glucose, 2% (w/v) agar) at 30 °C for 16–24 h. For all of the assays aimed at assessing the antifungal potential of the synthesized agents, the yeasts were cultivated at 37 °C in RPMI 1640 medium (with L-glutamine, without sodium bicarbonate, Sigma-Aldrich, Darmstadt, Germany)) buffered to a pH of 7.0 with 0.165 M morpholinepropanesulfonic acid (MOPS) buffer (Sigma-Aldrich). In this study, we used the human foreskin fibroblast cell line Hs27 (ATCC CRL 1634TM) and the human endothelial cell line HUVEC (C2519A), purchased from Lonza Group AG, (Basel, Switzerland). The Hs27 cells were maintained in cell media consisting of Dulbecco’s modified Eagles medium (DMEM), (Corning, Arizona, USA) with 10% fetal bovine serum (FBS), (Corning, Port Elizabeth, South Africa), 1% penicillin/streptomycin (Sigma-Aldrich Inc., Darmstadt, Germany), and 1% L-glutamine (Corning, Arizona, USA). The human endothelial cell line was maintained in cell media consisting of Endothelial Cell Growth Medium-2 Single Quots Kit (Lonza, USA). Both cell lines were cultured in an incubator at 37 °C and 5% CO2.
(§4) Hs27 and HUVEC mammalian cell lines were cultured as mentioned above. Once cell lines were about 80% confluent, cells were counted by a hemacytometer (Hausser Scientific, Horsham, PA, USA) and plated in 96-well microtiter plates at concentrations of 4500 cells per well for Hs27 and 2000 cells per well for HUVEC. Cells were allowed to attach overnight. […] The final concentration of DMSO was ensured to be around 1% in all experiments. Cells were incubated with studied compounds for 72 h at 37 °C and 5% CO2. After incubation, 20 µL of MTT solution in PBS (4 mg/mL) was added to all wells and incubated further for 3 h at 37 °C. Formed formazan crystals were dissolved in 150 µL DMSO, and absorbance was measured using an Asys UVM340 multi-well plate reader at λ = 540 nm. Cytotoxicity was determined compared to drug-free control. All experiments were performed in biological triplicates.

[2] = system: HUVEC cells (human umbilical venous endothelial primary cells); test: MTT cytotoxicity assay
Procedure: as §3, §4

C. albicans SC5314 [3] = test: Membrane permeabilization assay by propidium iodide uptake (flow cytometry, fluorescence microscopy); assay type: cell-based, Candida albicans
Procedure: Suspensions of C. albicans SC5314 were prepared by taking one loop of pure culture growth from 24 h YPD agar plates into RPMI 1640 medium and adjusting optical density to 0.1 at 660 nm wavelength. […] The cell suspensions were then treated for 0.5, 2, 4, 6, and 24 h at 37 °C with continuous agitation (180 rpm). The cells were then centrifuged and resuspended in 200 µL of PBS buffer (pH 7.4). Subsequently, cells were treated with propidium iodide (1 mg/mL, final concentration) and incubated for 30 min at room temperature in the dark. Cellular fluorescence was visualized using lens 20×, using Olympus Fluorescence Microscope BX60 (Olympus, Tokyo, Japan). The images were also post-processed utilizing cell Sens program. The fluorescence intensity emitted by DNA-bound propidium iodide was measured using a flow cytometer (Merck Millipore guava easyCyte 8, Darmstadt, Germany). Data were obtained from at least two independent experiments.

[4] = in vivo; cited from earlier work
Procedure: Fluconazole is water-soluble, safe for patients even at a high daily dose ([…]), can be applied either intravenously or orally, and has a beneficial pharmacokinetic profile and broad spectrum of activity.

MTT cytotoxicity assay [5] = conditions: human, Hs27 cells (human foreskin fibroblast cell line)
Procedure: as §3, §4

[6] = system: Hs27 cells (human foreskin fibroblast cell line); test: MTT cytotoxicity assay
Procedure: as §3, §4

Candida albicans B3 = test: microbe, parasite or virus in culture; conditions: Candida albicans, B3, 24 h, pH 7
Procedure: as §3
(§5) Antifungal activity of the tested compounds against yeast cells was determined in 96-well plates as described in the CLSI document M27-A3 [39], with minor modifications (CLSI, 2008). […] The plates were incubated for 24 h at 37 °C. Each test was performed in triplicate. The final concentration of DMSO was ensured to be around 1% in all experiments.
(§6) For determination of minimum fungicidal concentrations (MFC), small aliquots of suspensions (around 10 μL) from each well were transferred using the pipette to YPD agar plates without inhibitors and incubated for 24 h at 37 °C.

Candida krusei DSM 11226 = test: microbe, parasite or virus in culture; conditions: Pichia kudriavzevii, DSM11226, 24 h, pH 7
Procedure: as §3, §5, §6

Candida albicans 138 = test: microbe, parasite or virus in culture; conditions: Candida albicans, 138, 24 h, pH 7
Procedure: as §3, §5, §6

[7] = system: Candida glabrata DSM 6128; test: microbe, parasite or virus in culture; conditions: Nakaseomyces glabratus, DSM6128, 24 h, pH 7
Procedure: as §3, §5, §6

Candida albicans 604 = test: microbe, parasite or virus in culture; conditions: Candida albicans, 604, 24 h, pH 7
Procedure: as §3, §5, §6

Candida albicans B4 = test: microbe, parasite or virus in culture; conditions: Candida albicans, B4, 24 h, pH 7
Procedure: as §3, §5, §6

[8] = system: Candida albicans ATCC 10231; test: microbe, parasite or virus in culture; conditions: Candida albicans, ATCC10231, 24 h, pH 7
Procedure: as §3, §5, §6

Candida albicans SC 5314 = test: microbe, parasite or virus in culture; conditions: Candida albicans, SC5314, 24 h, pH 7
Procedure: as §3, §5, §6

Candida albicans Gu4 = test: microbe, parasite or virus in culture; conditions: Candida albicans, GU4, 24 h, pH 7
Procedure: as §3, §5, §6

Candida albicans 574 = test: microbe, parasite or virus in culture; conditions: Candida albicans, 574, 24 h, pH 7
Procedure: as §3, §5, §6

Candida albicans 247 = test: microbe, parasite or virus in culture; conditions: Candida albicans, 247, 24 h, pH 7
Procedure: as §3, §5, §6

Candida albicans 48 = test: microbe, parasite or virus in culture; conditions: Candida albicans, 48, 24 h, pH 7
Procedure: as §3, §5, §6

Candida albicans 190 = test: microbe, parasite or virus in culture; conditions: Candida albicans, 190, 24 h, pH 7
Procedure: as §3, §5, §6

Candida albicans Gu5 = test: microbe, parasite or virus in culture; conditions: Candida albicans, GU5, 24 h, pH 7
Procedure: as §3, §5, §6

C. albicans SC5314 [9] = conditions: C. albicans SC5314, RPMI-1640, 200 – 0.4 μg/mL range
Procedure: as §1, §2

[10] = system: C. albicans opt1-opt5Δptr2Δptr22Δ; conditions: RPMI-1640, 200 – 0.4 μg/mL range
Procedure: as §1, §2

CCCC[C@H](NC(=O)[C@H](CCCNC(=N)N)NC(=O)[C@H](Cc1c[nH]c2ccccc12)NC(=O)[C@H](CCC(N)=O)NC(=O)[C@H](Cc1c[nH]c2ccccc12)NC(=O)[C@H](CCCNC(=N)N)NC(=O)[C@H](CCCNC(=N)N)NC(=O)[C@H](CS)NC(=O)[C@H](CCCCN)NC(=O)[C@H](Cc1ccccc1)NC(=O)[C@@H](N)CCCC)C(=O)N[C@@H](CCCCN)C(=O)N[C@@H](CCCCN)C(=O)N[C@@H](CC(C)C)C(=O)NCC(N)=O [LFacinB[Nle^1,11]-NH2] (H-[Nle]FKCRRWQWR[Nle]KKLG-NH2; N-terminus assumed)
MIC50 (C. glabrata DSM 11226): > 100 µg/mL
MIC90 (C. glabrata DSM 11226): > 100 µg/mL
MIC50 (C. parapsilosis DSM 5784): > 100 µg/mL
MIC90 (C. parapsilosis DSM 5784): > 100 µg/mL
MIC50 (C. tropicalis (clinical)): 50 µg/mL (≈ 24.8 µM)
MIC90 (C. tropicalis (clinical)): > 100 µg/mL
MIC50 (C. albicans ATCC 10231): > 100 µg/mL
MIC90 (C. albicans ATCC 10231): > 100 µg/mL
MIC50 (C. krusei DSM 6128): 100 µg/mL (≈ 49.6 µM)
MIC90 (C. krusei DSM 6128): 100 µg/mL (≈ 49.6 µM)

OC(Cn1cncn1)(Cn1cncn1)c1ccc(F)cc1F [FLC, fluconazole]
IC50 at 72 h (MTT cytotoxicity assay [1]): > 100 µM
In vitro cytotoxicity IC90 ± SEM [2]: >100 µM
cell membrane disruption (PI uptake), in words (C. albicans SC5314 [3]; C. albicans SC5314, 8 × MIC (62 µM), 4 or 6 h): No symptoms of cell membrane disruption
Dead (%), PI uptake by flow cytometry (C. albicans SC5314 [3]; SC5314, 4 h): 2,50%
Live (%), PI uptake by flow cytometry (C. albicans SC5314 [3]; SC5314, 4 h): 97,5%
Dead (%), PI uptake by flow cytometry (C. albicans SC5314 [3]; SC5314, 6 h): 2,83%
Live (%), PI uptake by flow cytometry (C. albicans SC5314 [3]; SC5314, 6 h): 97,2%
incidence rate of azole-induced liver injury [4]: 1%
IC50 at 72 h (MTT cytotoxicity assay [5]): > 100 µM
In vitro cytotoxicity IC90 ± SEM [6]: >100 µM
MIC90 (Candida albicans B3): 15 µM (≈ 4.59 µg/mL)
MIC50 (Candida krusei DSM 11226): 70 µM (≈ 21.4 µg/mL)
MIC90 (Candida krusei DSM 11226): 125 µM (≈ 38.3 µg/mL)
MIC90 (Candida albicans 138): > 250 µM
MIC50 [7]: 62 µM (≈ 19 µg/mL)
MIC90 [7]: 250 µM (≈ 76.6 µg/mL)
MIC90 (Candida albicans 604): > 250 µM
MIC90 (Candida albicans B4): 62 µM (≈ 19 µg/mL)
MIC50 [8]: < 8 µM
MIC90 [8]: < 8 µM
MIC50 (Candida albicans SC 5314): < 8 µM
MIC90 (Candida albicans SC 5314): < 8 µM
MIC90 (Candida albicans Gu4): 31 µM (≈ 9.49 µg/mL)
MIC90 (Candida albicans 574): > 250 µM
MIC90 (Candida albicans 247): > 250 µM
MIC90 (Candida albicans 48): > 250 µM
MIC90 (Candida albicans 190): > 250 µM
MIC90 (Candida albicans Gu5): > 250 µM

CC[C@H](C)[C@H](NC(=O)[C@H](CCCCN)NC(=O)[C@H](CCCCN)NC(=O)[C@H](C)NC(=O)[C@H](CC(C)C)NC(=O)[C@H](C)NC(=O)[C@H](C)NC(=O)[C@H](CC(C)C)NC(=O)[C@H](C)NC(=O)[C@H](CCCCN)NC(=O)[C@H](CC(C)C)NC(=O)[C@H](CC(N)=O)NC(=O)[C@@H](NC(=O)[C@H](CCCCN)NC(=O)CNC(=O)[C@H](CC(C)C)NC(=O)[C@H](CC(C)C)NC(=O)[C@H](Cc1ccc(O)cc1)NC(=O)CNC(=O)[C@H](C)N)[C@@H](C)CC)C(=O)N[C@@H](CC(C)C)C(N)=O [TP10-NH2]
MIC50 (C. glabrata DSM 11226): 200 µg/mL (≈ 91.7 µM)
MIC90 (C. glabrata DSM 11226): 200 µg/mL (≈ 91.7 µM)
MIC50 (C. albicans SC5314 [9]): 50 µg/mL (≈ 22.9 µM)
MIC90 (C. albicans SC5314 [9]): 50 µg/mL (≈ 22.9 µM)
MIC50 (C. albicans ATCC 10231): 200 µg/mL (≈ 91.7 µM)
MIC90 (C. albicans ATCC 10231): 200 µg/mL (≈ 91.7 µM)
MIC50 (C. krusei DSM 6128): 50 µg/mL (≈ 22.9 µM)
MIC90 (C. krusei DSM 6128): 50 µg/mL (≈ 22.9 µM)
MIC50 [10]: 25 µg/mL (≈ 11.5 µM)
MIC90 [10]: 25 µg/mL (≈ 11.5 µM)
